# Counter-ions that a name gives are not always drawn. Like-named read-outs stand apart in the source and are kept apart here.
# Columns and labels:
# [1] = tested on: isolated auricles of guinea pigs; details: dose 1.10 - 6 g/ml of bath
# [2] = tested on: mice; experiment: Anti-arrhythmic activity in mice; assay type: in vivo; details: Mus musculus, po, 0.5 h, read-out: Anti-arrhythmic activity: number of mice protected in relation with the number of tested mice
# Method: ^(4) Number of mice protected in relation with the number of tested
# mice (dose = 100 mg/kg per os; recording 30 min. after administration)
# [3] = Local anaesthesic activity; assay type: in vivo; details: read-out: Local anaesthesic activity ED50
# [4] = Peripherical vasodilatator activity (intra-arterial); assay type: in vivo; details: dose = 30 γ/kg intra-arterial
# Source text: activity equal to that of papaverine; ++++ = activity higher than that of
# papaverine (dose = 30 γ /kg intra-arterial)
# [5] = in vivo; details: mouse, ip
# [6] = 100 mg/kg per os, recording 30 min. after administration
smiles,measurement,setting,value
CSc1ccc(C(O)CNC(C)(C)C)cc1C (stereo not shown) [Table III No. 12],"Protection against anoxia, activity",[1],+
CCc1cc(C(O)CNC(C)(C)C)ccc1SC (stereo not shown) [Table III No. 50],responders at 100 mg/kg,[2],50%
same,ED50,[3],> 5 mg/kg
CCCCSc1ccc(C(O)CNC(C)C(O)c2ccccc2)cc1C (stereo not shown) [Table IV No. 66],responders at 100 mg/kg,[2],20%
CCc1cc(C(O)CNC(C)CC)ccc1SC (stereo not shown) [compound 51],Peripherical vasodilatator activity,[4],+ ++
Cc1cc(C(O)CNC(C)(C)C)ccc1SC(C)C (stereo not shown) [compound 125],LD50,[5],150 mg/kg
CCCCCSc1ccc(C(O)CNCCCC)cc1C (stereo not shown) [compound 104],LD50,[5],75 mg/kg
CSc1c(C)cc(C(O)CNC(C)C)cc1Cl (stereo not shown) [Table III No. 64],LD50,[5],182 mg/kg
same,ED50,[3],4.1 mg/kg
"CC(C)NCC(O)COc1cccc2ccccc12 (stereo not shown) [Propranolol, reference compound]",responders at 100 mg/kg,[2],100%
same,"Protection against anoxia, activity",[1],0
same,ED50,[3],1.4 mg/kg
CSc1ccc(C(O)C(C)NC(C)(C)C)cc1Cl (stereo not shown) [Table III No. 3],responders at 100 mg/kg,[2],10%
same,LD50,[5],440 mg/kg
same,ED50,[3],> 5 mg/kg
CSc1ccc(C(O)CN)cc1C (stereo not shown) [compound 41],LD50,[5],150 mg/kg
"CSc1ccc(C(O)CNC(C)C)cc1F (stereo not shown) [Table III No. 58, 1-(3-fluoro-4-methylthiophenyl)-2-isopropylaminoethanol]",responders at 100 mg/kg,[2],20%
same,ED50,[3],> 5 mg/kg
CCC(C)NC(C)C(O)c1ccc(SC)c(Cl)c1 (stereo not shown) [Table III No. 8],LD50,[5],150 mg/kg
"COc1cc(C(O)CNC(C)(C)C)ccc1SC (stereo not shown) [Table IV No. 33, 1-(3-Methoxy-4-methylthiophenyl)-2-tertbutylaminoethanol hydrochloride]",responders at 100 mg/kg,[2],20%
CCc1cc(C(O)CNC(C)(C)C)ccc1SC (stereo not shown) [compound 50],LD50,[5],150 mg/kg
CCCCSc1ccc(C(O)CNC(C)(C)C)cc1C (stereo not shown) [compound 90],LD50,[5],91 mg/kg
CCCCCCSc1ccc(C(O)CNC(C)(C)C)cc1C (stereo not shown) [compound 107],LD50,[5],110 mg/kg
"CCc1cc(C(O)CNC(C)C)ccc1SC (stereo not shown) [Table III No. 47, 1-(3-Ethyl-4-methylthiophenyl)-2-isopropylaminoethanol]",responders at 100 mg/kg,[2],65%
same,"Protection against anoxia, activity",[1],++
CCCCNCC(O)c1ccc(SCC)c(C)c1 (stereo not shown) [compound 80],LD50,[5],110 mg/kg
same,ED50,[3],> 5 mg/kg
CCCCSc1ccc(C(O)CN2CCCC(C)C2)cc1C (stereo not shown) [compound 95],LD50,[5],150 mg/kg
Cc1cc(C(O)CN2CCC(C)CC2)ccc1SC(C)C (stereo not shown) [compound 133],LD50,[5],110 mg/kg
CCCCCCSc1ccc(C(O)CNCCC)cc1C (stereo not shown) [compound 112],LD50,[5],364 mg/kg
CCSc1ccc(C(O)CNC(C)C)cc1C (stereo not shown) [compound 74],LD50,[5],150 mg/kg
CCCCSc1ccc(C(O)CN2CCCCC2)cc1C (stereo not shown) [compound 93],LD50,[5],182 mg/kg
CCSc1ccc(C(O)CNC2CCCCC2)cc1C (stereo not shown) [Table IV No. 51],ED50,[3],> 5 mg/kg
CSc1ccc(C(O)CN2CCCCC2)cc1C (stereo not shown) [Table IV No. 8],responders at 100 mg/kg,[2]; [6],20%
same,ED50,"[3]; ED50, interval in brackets",1.6 mg/kg
CCCCSc1ccc(C(O)CN(C)C)cc1C (stereo not shown) [compound 94],LD50,[5],150 mg/kg
CCCCCCSc1ccc(C(O)CN2CCCCC2)cc1C (stereo not shown) [compound 108],LD50,[5],182 mg/kg
Cc1cc(C(O)CN2CCCCC2)ccc1SCC(C)C (stereo not shown) [compound 86],LD50,[5],110 mg/kg
Cc1cc(C(O)CN2CCOCC2)ccc1SC(C)C (stereo not shown) [compound 126],LD50,[5],440 mg/kg
"CCN(CC)CCOC(=O)c1ccc(N)cc1 [Procaine, reference compound]",ED50,[3],1.8 mg/kg
CCSc1ccc(C(O)CNCCc2ccccc2)cc1C (stereo not shown) [compound 81],LD50,[5],75 mg/kg
CSc1ccc(C(O)CNC(C)Cc2ccccc2)cc1Cl (stereo not shown) [Table III No. 22],LD50,[5],55 mg/kg
Cc1cc(C(O)CN2CCCCC2)ccc1SC(C)C (stereo not shown) [compound 124],LD50,[5],150 mg/kg
CCCCSc1ccc(C(O)CN2CCC(C)CC2)cc1C (stereo not shown) [Table IV No. 63],responders at 100 mg/kg,[2]; [6],20%
same,ED50,"[3]; ED50, interval in brackets",4.1 mg/kg
CCCCCCCCNCC(O)c1ccc(SC(C)C)c(C)c1 (stereo not shown) [compound 131],LD50,[5],86 mg/kg
CCC(C)NCC(O)c1ccc(SC)c(C)c1 (stereo not shown) [compound 33],Peripherical vasodilatator activity,[4],++ +
Cc1cc(C(O)CN2CCC(C)CC2)ccc1SCC(C)C (stereo not shown) [compound 85],LD50,[5],182 mg/kg
CSc1c(C)cc(C(O)CN2CCCCC2)cc1Cl (stereo not shown) [compound 62],LD50,[5],220 mg/kg
CCSc1ccc(C(O)CNC(C)(C)C)cc1C (stereo not shown) [Table III No. 73],LD50,[5],220 mg/kg
same,ED50,[3],~5 mg/kg
CSc1ccc(C(O)CNC(C)Cc2ccccc2)cc1C (stereo not shown) [compound 31],LD50,[5],75 mg/kg
CSc1ccc(C(O)C(C)N2CCC(C)CC2)cc1C (stereo not shown) [Table III No. 20],LD50,[5],91 mg/kg
"CCc1cc(C(O)CNC(C)CC)ccc1SC (stereo not shown) [Table III No. 51, 1-(3-Ethyl-4-methylthiophenyl)-2-secbutylaminoethanol]",responders at 100 mg/kg,[2],60%
same,ED50,[3],> 5 mg/kg
CCCCSc1ccc(C(O)CN2CCC(C)CC2)cc1C (stereo not shown) [compound 96],LD50,[5],182 mg/kg
CCCCNCC(O)c1ccc(SC)c(Cl)c1 (stereo not shown) [Table III No. 15],LD50,[5],110 mg/kg
CCCC(NC(C)CC)C(O)c1ccc(SC)c(Cl)c1 (stereo not shown) [compound 40],ED50,[3],~5 mg/kg
"C=C[C@H]1C[N@@]2CC[C@H]1C[C@@H]2[C@@H](O)c1ccnc2ccc(OC)cc12 [Quinidine, reference compound]",responders at 100 mg/kg,[2]; [6],20%
CCCCCCSc1ccc(C(O)CN2CCOCC2)cc1C (stereo not shown) [compound 109],LD50,[5],600 mg/kg
CCSc1ccc(C(O)CNC2CCCCC2)cc1C (stereo not shown) [Table III No. 77],LD50,[5],91 mg/kg
"CSc1ccc(C(O)CNC(C)C)cc1C (stereo not shown) [Table III No. 1, 1-(3-methyl-4-methylthiophenyl)-2-isopropylaminoethanol]",responders at 100 mg/kg,[2],60%
same,LD50,[5],150 mg/kg
same,"Protection against anoxia, activity",[1],++
same,ED50,[3],4.5 mg/kg
CSc1ccc(C(O)CNC2CCCCC2)cc1C (stereo not shown) [Table IV No. 24],responders at 100 mg/kg,[2],40%
same,ED50,[3],> 5 mg/kg
CSc1ccc(C(O)CN2CCCCC2)cc1Cl (stereo not shown) [Table III No. 24],LD50,[5],364 mg/kg
same,Peripherical vasodilatator activity,[4],+ ++
"CSc1ccc(C(O)CNC2CCCCC2)cc1C (stereo not shown) [CH3 S--, 3CH3 (amine drawn)]","Protection against anoxia, activity",[1],++
CCCCCCCCNCC(O)c1ccc(SC)c(CC)c1 (stereo not shown) [compound 45],LD50,[5],75 mg/kg
"CSc1ccc(C(O)CNC(C)C)cc1Cl (stereo not shown) [Table III No. 11, 1-(3-Chloro-4-methylthiophenyl)-2-isopropylaminoethanol]",responders at 100 mg/kg,[2],55%
same,LD50,[5],150 mg/kg
same,"Protection against anoxia, activity",[1],++
same,ED50,[3],> 5 mg/kg
CCCCCSc1ccc(C(O)CNC(C)(C)C)cc1C (stereo not shown) [compound 102],LD50,[5],91 mg/kg
Cc1cc(C(O)CNC(C)C)ccc1SC(C)C (stereo not shown) [compound 127],LD50,[5],182 mg/kg
CSc1ccc(C(O)CNC(C)(C)C)cc1Cl (stereo not shown) [Table III No. 2],responders at 100 mg/kg,[2],10%
CCCCCCCCSc1ccc(C(O)CNC(C)CC)cc1C (stereo not shown) [Table III No. 117],responders at 100 mg/kg,[2],30%
CCC(C(O)c1ccc(SC)c(Cl)c1)N1CCOCC1 (stereo not shown) [Table III No. 28],ED50,[3],> 5 mg/kg
Cc1cc(C(O)CNC2CCCCC2)ccc1SC(C)C (stereo not shown) [compound 130],LD50,[5],75 mg/kg
CSc1ccc(C(O)CN2CCC(C)CC2)cc1C (stereo not shown) [Table IV No. 27],responders at 100 mg/kg,[2]; [6],20%
same,ED50,"[3]; ED50, interval in brackets",> 5 mg/kg
"CCC(C)NCC(O)c1ccc(SC)c(C)c1 (stereo not shown) [Table III No. 33, 1-(3-Methyl-4-methylthiophenyl)-2-secbutylaminoethanol]",responders at 100 mg/kg,[2],40%
same,ED50,[3],~5 mg/kg
CCCCNCC(O)c1ccc(SC(C)C)c(C)c1 (stereo not shown) [compound 129],LD50,[5],46 mg/kg
CCSc1ccc(C(O)CNC(C)Cc2ccccc2)cc1C (stereo not shown) [compound 83],LD50,[5],110 mg/kg
"CSc1ccc(C(O)CN2CCCCC2)cc1C (stereo not shown) [CH3 S--, 3CH3 (amine drawn)]","Protection against anoxia, activity",[1],+
"COc1ccc(Cc2nccc3cc(OC)c(OC)cc23)cc1OC [Papaverine, reference compound]",LD50,[5],300 mg/kg
same,"Protection against anoxia, activity",[1],0
CCCCNCC(O)c1ccc(SCCCC)c(C)c1 (stereo not shown) [compound 97],LD50,[5],110 mg/kg
